Test results published in US20210220408A1, “ARYL HYDROCARBON RECEPTOR ANTAGONISTS AND METHODS OF USE” (Magenta Therapeutics Inc., priority 2018, published 2021).
pEC50, pIC50: −log10 of the molar value.

Tests used:
[1] = tested on: mobilized peripheral blood CD34+ cells; test: CD34+ expansion assay; type: cell-based; details: Homo sapiens; read-out: CD34 Frequency EC50
Procedure: Approximately 3,000 mobilized peripheral blood CD34+ cells were plated per well in 384-well plate at a final volume of 45 μL in HSC growth media (SFEM supplemented with Pen/Strep, 50 ng/mL FLT3L, TPO, SCF and IL-6). Serial dilutions were made in HSC growth media with a top final concentration of 10 μM. 5 μL 10× stock was added to each well. The plate was gently tapped on all sides and incubated for 7 days at 37° C./5% CO2. On day 7, the media was aspirated on a Biotek plate washer and 30 μL staining solution was added to the cells with antibodies against CD34-PE, CD90-APC, CD45RA-PE-CF594 in PBS. Cells were washed once in PBS and resuspended in 80 μL for final volume. 40 μL was acquired by flow cytometry (BD Celesta).

[2] = target: T1, aryl hydrocarbon receptor (AHR) (Homo sapiens, UniProt P35869); test: DRE-Luciferase reporter high-throughput screen (AHR antagonist, VAF347-activated)
T1 sequence (P35869 11-848): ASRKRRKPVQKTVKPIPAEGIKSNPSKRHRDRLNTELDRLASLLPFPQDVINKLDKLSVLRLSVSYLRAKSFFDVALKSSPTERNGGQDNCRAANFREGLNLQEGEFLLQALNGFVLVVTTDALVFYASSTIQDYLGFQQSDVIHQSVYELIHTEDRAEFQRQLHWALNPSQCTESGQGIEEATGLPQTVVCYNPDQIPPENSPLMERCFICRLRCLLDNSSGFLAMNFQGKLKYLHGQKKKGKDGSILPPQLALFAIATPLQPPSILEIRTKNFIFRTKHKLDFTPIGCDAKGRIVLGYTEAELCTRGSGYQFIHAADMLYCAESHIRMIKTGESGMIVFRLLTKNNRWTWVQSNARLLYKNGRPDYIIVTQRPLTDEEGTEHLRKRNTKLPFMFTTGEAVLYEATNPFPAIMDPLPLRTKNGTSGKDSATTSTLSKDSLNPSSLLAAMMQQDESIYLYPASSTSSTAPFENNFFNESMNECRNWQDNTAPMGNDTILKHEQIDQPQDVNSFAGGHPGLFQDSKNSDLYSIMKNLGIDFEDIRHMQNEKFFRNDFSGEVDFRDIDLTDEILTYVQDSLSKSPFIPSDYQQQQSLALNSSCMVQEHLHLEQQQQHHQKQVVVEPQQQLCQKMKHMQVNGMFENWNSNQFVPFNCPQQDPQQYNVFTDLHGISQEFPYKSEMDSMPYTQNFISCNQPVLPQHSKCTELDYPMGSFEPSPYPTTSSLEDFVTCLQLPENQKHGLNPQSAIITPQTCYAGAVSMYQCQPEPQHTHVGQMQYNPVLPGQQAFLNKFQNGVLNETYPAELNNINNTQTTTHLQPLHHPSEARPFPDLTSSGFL

Row | Structure (SMILES) | pEC50 [1] | pIC50 [2]
1 | COc1cc(C(F)(F)F)ccc1C(=O)Nc1cccc(N2CCOCC2)c1 [compound 1] | 6.00 to 6.30 | 6.30 to 6.70
2 | N#Cc1ccc(C(=O)Nc2cc(C(F)(F)F)ccc2Cl)c(F)c1 [compound 2] | 6.00 to 6.30 | 6.30 to 6.70
3 | Cc1cccc(C(=O)Nc2ccc(-c3nc4ncccc4o3)cc2)c1 [compound 4] | 6.00 to 6.30 | 6.00 to 6.30
4 | Cc1ccc(Nc2ccc(NC(=O)c3ccc(-c4ccccc4)cc3)cc2)nn1 [compound 5] | 5.30 to 6.00 | 6.00 to 6.30
5 | O=C(Nc1ccc2ccccc2n1)c1ccccc1Cl [compound 12] | 6.00 to 6.30 | 6.00 to 6.30
6 | CSc1ccccc1C(=O)Nc1ccc2[nH]c(-c3ccc(F)cc3)nc2c1 [compound 13] | > 6.30 | 6.00 to 6.30
7 | COc1ccc(C(=O)Nc2ccc3c(c2)oc2ccccc23)cc1[N+](=O)[O-] [compound 14] | > 6.30 | > 6.70
8 | CCCSc1nc(N)c(C(=O)Nc2ccccc2)cc1C#N [compound 16] | > 6.30 | 6.30 to 6.70
9 | O=C(Nc1ccccc1Cl)c1cnc(-c2noc3ccccc23)s1 [compound 23] | 6.00 to 6.30 | 6.30 to 6.70
10 | O=C(Nc1ccc(-c2nnc3n2CCCCC3)cc1)c1cccc2cccnc12 [compound 24] | 6.00 to 6.30 | 6.30 to 6.70
11 | Cc1noc(C)c1C(=O)Nc1ccc(-c2nc3ccccc3o2)cc1 [compound 25] | 6.00 to 6.30 | 6.30 to 6.70
12 | COc1ccc(-n2nnc(C(=O)Nc3ccccc3C(F)(F)F)c2N)cc1 [compound 28] | 5.30 to 6.00 | 6.30 to 6.70
13 | O=C(Nc1ccc(N2CCCC2)nc1)c1cc2c(F)cccc2s1 [compound 46] | 6.00 to 6.30 | 6.30 to 6.70
14 | Cc1ccc(-c2csc(-c3ccncc3)n2)c(C)c1 [compound 52] | 5.30 to 6.00 | 6.00 to 6.30
15 | Nc1c(-c2nc(-c3ccccc3)cs2)nnn1-c1ccc(F)cc1 [compound 53] | 6.00 to 6.30 | 6.00 to 6.30
16 | c1ccc(-c2nnc(-c3csc(-c4cccnc4)n3)o2)cc1 [compound 57] | 6.00 to 6.30 | 6.30 to 6.70
17 | O=c1[nH]c2ccc(-c3csc(-c4ccccn4)n3)cc2[nH]1 [compound 58] | ≤ 5.30 | 6.00 to 6.30

Row | Structure (SMILES) | pEC50 [1] | pIC50 [2]
18 | COc1ccc(Nc2nc(-c3ccccn3)cs2)cc1 [compound 59] | > 6.30 | 6.00 to 6.30
19 | Cc1ccn2c(-c3csc(Nc4ccccn4)n3)c(C)nc2c1 [compound 60] | 5.30 to 6.00 | 6.00 to 6.30
20 | O=[N+]([O-])c1ccc(-c2cn3nc(C(F)(F)F)sc3n2)cc1 [compound 68] | 6.00 to 6.30 | 6.30 to 6.70
21 | Cc1nn2cc(-c3ccc(-c4ccccc4)cc3)nc2s1 [compound 69] | 6.00 to 6.30 | 6.30 to 6.70
22 | CC(=O)N1CCN(c2nc3cc(C(F)(F)F)ccc3s2)CC1 [compound 74] | 5.30 to 6.00 | 6.00 to 6.30
23 | FC(F)(F)c1nc(N2CCN(c3ncccn3)CC2)c2ccccc2n1 [compound 76] | ≤ 5.30 | 6.30 to 6.70
24 | Fc1ccc(/C=N\N2CCN(c3ccccn3)CC2)cc1 [compound 77] | ≤ 5.30 | 6.00 to 6.30
25 | N#Cc1cccc(C#N)c1N1CCN(C(=O)Nc2ccccc2)CC1 [compound 79] | ≤ 5.30 | 6.00 to 6.30
26 | Fc1ccc(-c2cc(-c3ccccc3)nc(-n3cccn3)n2)cc1 [compound 82] | 6.00 to 6.30 | > 6.70
27 | Cc1cnn(-c2nc(-c3ccc(F)cc3)cc(C(F)(F)F)n2)c1 [compound 83] | > 6.30 | > 6.70
28 | N#Cc1nc(NCC(O)c2ccc(OC(F)F)cc2)ccc1Cl (stereo not shown) [compound 88] | 5.30 to 6.00 | 6.30 to 6.70
29 | N#Cc1ccc(-c2ccncc2)nc1SCc1ccccn1 [compound 89] | > 6.30 | 6.00 to 6.30
30 | N#Cc1cn(-c2ccc(Cl)cc2)nc1C(=O)c1cccs1 [compound 91] | > 6.30 | 6.30 to 6.70
31 | Nc1cc(-c2ccc3c(c2)CCCC3)nn1-c1ccccc1 [compound 92] | ≤ 5.30 | 6.00 to 6.30
32 | O=c1[nH]nc(CNc2ccc(Cl)cc2Cl)c2ccccc12 [compound 156] | – | 6.00 to 6.30
33 | O=[N+]([O-])c1cc(C(F)(F)F)ccc1Oc1ccc(-c2noc(-c3ccccc3F)n2)cc1 [compound 157] | – | 6.00 to 6.30

The remaining lines, values ahead:

Row | pEC50 [1] | pIC50 [2] | Structure (SMILES)
34 | 6.00 to 6.30 | 6.30 to 6.70 | Cc1ccc(NC(=O)c2cccc(OCc3c(C)noc3C)c2)c(Cl)c1 [compound 3]
35 | 5.30 to 6.00 | 6.00 to 6.30 | COc1ccccc1C(=O)Nc1cccc(-c2cn3ccsc3n2)c1 [compound 6]
36 | 5.30 to 6.00 | 6.00 to 6.30 | Cn1cnnc1Sc1ccc(NC(=O)c2cc(Br)ccc2F)cc1 [compound 7]
37 | 5.30 to 6.00 | 6.00 to 6.30 | Cc1ccc(C(=O)Nc2ccc(-c3nccs3)cc2)cc1 [compound 8]
38 | ≤ 5.30 | 6.00 to 6.30 | CCCCOc1ccc(C(=O)Nc2cccc(C(=O)OCC(C)C)c2)cc1 [compound 9]
39 | 5.30 to 6.00 | 6.00 to 6.30 | COc1c(C)cccc1C(=O)Nc1cc(-c2ccc(F)cc2)nn1C [compound 11]
40 | > 6.30 | > 6.70 | Cc1ccc2nc3sc(C(=O)Nc4cccc(C(F)(F)F)c4)cc3c(=O)n2c1 [compound 15]
41 | > 6.30 | 6.00 to 6.30 | CC(C)n1nnc2cc(C(=O)Nc3ccc(Cl)cc3)ccc21 [compound 17]
42 | > 6.30 | 6.30 to 6.70 | COc1cccc(NC(=O)c2cc3c(=O)n4ccccc4nc3n2C)c1 [compound 18]
43 | > 6.30 | > 6.70 | Cc1ccc(NC(=O)c2sc3nc(N)c(C#N)cc3c2N)cc1Cl [compound 19]
44 | 6.00 to 6.30 | 6.00 to 6.30 | Cc1cccc(NC(=O)c2cc(-c3ccc(C)cc3O)n[nH]2)c1 [compound 20]
45 | 6.00 to 6.30 | 6.30 to 6.70 | Cc1ccc(NC(=O)c2cn3ccccc3n2)cc1 [compound 21]
46 | 6.00 to 6.30 | 6.00 to 6.30 | COc1ccc(NC(=O)c2nnn(-c3cc(C)cc(C)c3)c2C)c(OC)c1 [compound 22]
47 | 5.30 to 6.00 | 6.30 to 6.70 | Cc1cc(Oc2ncccc2C#N)ccc1NC(=O)c1oc(Br)cc1C [compound 26]
48 | 5.30 to 6.00 | 6.00 to 6.30 | CC(C)(C)c1ccc(O)c(NC(=O)c2cnc3ccccn3c2=O)c1 [compound 27]
49 | 5.30 to 6.00 | 6.00 to 6.30 | Cc1ccc(C)c(NC(=O)c2nc3c(s2)CCCN3c2ccc(C)nn2)c1 [compound 29]
50 | ≤ 5.30 | 6.00 to 6.30 | CC(=O)N(C)Cc1cccc(NC(=O)c2n[nH]c3ccccc23)c1 [compound 30]
51 | 5.30 to 6.00 | 6.00 to 6.30 | CCc1cc(C(=O)Nc2ccc(SC)cc2)sc1C [compound 38]
52 | ≤ 5.30 | > 6.70 | COC(=O)c1sc(NC(=O)c2cc(C)n(C)n2)cc1C [compound 41]
53 | 5.30 to 6.00 | 6.00 to 6.30 | Cc1ccc(-c2c(C)sc(NC(=O)c3cccnc3)c2C(N)=O)cc1 [compound 42]
54 | 6.00 to 6.30 | 6.30 to 6.70 | CCc1ccc(C(=O)Nc2scc(-c3ccc(Cl)cc3)c2C(N)=O)s1 [compound 43]
55 | 6.00 to 6.30 | > 6.70 | Cc1noc(C)c1C(=O)Nc1ccc2oc(-c3cc(F)ccc3Br)nc2c1 [compound 45]
56 | 5.30 to 6.00 | 6.00 to 6.30 | CCC(=O)N1CCc2cc(C(=O)Nc3ccn(CCc4ccccn4)n3)ccc21 [compound 47]
57 | 5.30 to 6.00 | 6.00 to 6.30 | CCN(C)C(=O)c1cnc(-c2noc3ccccc23)s1 [compound 65]
58 | 6.00 to 6.30 | 6.30 to 6.70 | Cc1cn2nc(NCCOc3ccc(F)cc3)sc2n1 [compound 70]
59 | 6.00 to 6.30 | 6.00 to 6.30 | Cc1cc(-c2nnc3sc(-c4ccc(F)cc4)nn23)[nH]n1 [compound 71]
60 | 6.00 to 6.30 | 6.30 to 6.70 | CC(C)c1cc(-c2nnc3sc(-c4ccccn4)nn23)[nH]n1 [compound 72]
61 | 5.30 to 6.00 | 6.00 to 6.30 | Cn1nc(C(C)(C)C)cc1-c1nn2c(-c3cccs3)nnc2s1 [compound 73]
62 | 5.30 to 6.00 | 6.30 to 6.70 | CCOC(=O)N1CCN(c2nc(CC)nc3sc(C)cc23)CC1 [compound 75]
63 | ≤ 5.30 | 6.00 to 6.30 | Cc1ccc2cc(C(=O)N3CCN(S(=O)(=O)c4cccs4)CC3)[nH]c2c1 [compound 78]
